This passage reports T/C results from PubChem BioAssay AID248 (DTP/NCI, 2004).

The subject of the experiment is L1210 leukemia ip in BDF1 mice, survival T/C. Briefly: NCI In Vivo Anticancer Drug Screen. Data for tumor model L1210 Leukemia (intraperitoneal) in B6D2F1 (BDF1) mice. To be noted: endpoint: mean survival time, higher = longer survival. Summed up:
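Survival endpoint. Drug-treated group vs vehicle group, expressed as T divided by C. Tumor passaged by transplantation.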

The mark [1] stands for this setting: dose: 100.0 mg/kg/injection, schedule: Q01DX009 (ip), vehicle: Klucel (hydroxypropylcellulose) (HPC).
The mark [2] stands for this setting: dose: 100.0 mg/kg/injection, schedule: Q04DX003 (ip), vehicle: Klucel (hydroxypropylcellulose) (HPC).
Where [3] appears, read: dose: 200.0 mg/kg/injection, schedule: Q01DX009 (ip), vehicle: Klucel (hydroxypropylcellulose) (HPC).
[4] abbreviates: dose: 200.0 mg/kg/injection, schedule: Q04DX003 (ip), vehicle: Klucel (hydroxypropylcellulose) (HPC).
Where [5] appears, read: dose: 400.0 mg/kg/injection, schedule: Q01DX009 (ip), vehicle: Klucel (hydroxypropylcellulose) (HPC).
Setting [6] is: dose: 400.0 mg/kg/injection, schedule: Q04DX003 (ip), vehicle: Klucel (hydroxypropylcellulose) (HPC).
[7] abbreviates: dose: 100.0 mg/kg/injection, schedule: Q01DX001 (ip), vehicle: saline.
The mark [8] stands for this setting: dose: 200.0 mg/kg/injection, schedule: Q01DX001 (ip), vehicle: saline.
Setting [9] is: dose: 100.0 mg/kg/injection, schedule: Q01DX009 (ip), vehicle: saline with Tween-80.
The mark [10] stands for this setting: dose: 200.0 mg/kg/injection, schedule: Q01DX009 (ip), vehicle: saline with Tween-80.
Where [11] appears, read: dose: 400.0 mg/kg/injection, schedule: Q01DX009 (ip), vehicle: saline with Tween-80.
Where [12] appears, read: dose: 400.0 mg/kg/injection, schedule: Q01DX001 (ip), vehicle: saline.

Toxic doses and inconclusive results are not listed.

On to `CC(N)CC(C)(C)N` (stereo unspecified), for which the T/C by setting is: (dose: 50.0 mg/kg/injection, schedule: Q04DX003 (ip), vehicle: saline) 90 % of control; (dose: 100.0 mg/kg/injection, schedule: Q04DX003 (ip), vehicle: saline) 91 % of control; (dose: 200.0 mg/kg/injection, schedule: Q04DX003 (ip), vehicle: saline) 90 % of control.

Consider `CCOC(=O)C(Cc1ccc(Cl)cc1)(Cc1ccc(Cl)cc1)C(=O)OCC`, for which the T/C is 100 % of control under setting [1]; 92 % of control under setting [2]; 98 % of control under setting [3]; 92 % of control under setting [4]; 102 % of control under setting [5]; 94 % of control under setting [6].

For the molecule `O=C(N/C=C/NC(=O)NCc1ccco1)NCc1ccco1`, the T/C was 97 % of control under setting [1] and 87 % of control under setting [3].

For the molecule `c1ccc2nc3ccccc3c-2cc1`, the T/C was 95 % of control (dose: 100.0 mg/kg/injection, schedule: Q04DX003 (ip), vehicle: acetone); 98 % of control (dose: 200.0 mg/kg/injection, schedule: Q04DX003 (ip), vehicle: acetone); 95 % of control (dose: 400.0 mg/kg/injection, schedule: Q04DX003 (ip), vehicle: acetone).

Consider `O=C(NC1CCCC1)c1ccc(C(=O)NC2CCCC2)cc1`, for which the T/C under setting [7] is 91 % of control and the T/C under setting [8] was 91 % of control.

Regarding `Cc1cc2nc(/C(C#N)=C/c3cc(Cl)cc(Cl)c3O)[nH]c2cc1C`, the T/C is, setting by setting: (dose: 100.0 mg/kg/injection, schedule: Q01DX009 (ip), vehicle: other) 93 % of control; (dose: 200.0 mg/kg/injection, schedule: Q01DX009 (ip), vehicle: other) 104 % of control; (dose: 400.0 mg/kg/injection, schedule: Q01DX009 (ip), vehicle: other) 93 % of control.

With `O=C(Nc1cccc(F)c1)N(Cc1ccccc1)c1ccccc1`, the T/C by setting is: under setting [9], 91 % of control; under setting [10], 91 % of control; under setting [11], 98 % of control.

Turning to `CS(=O)(=O)OCC1CC=CCC1COS(C)(=O)=O` (stereo unspecified), the T/C is, setting by setting: under setting [1], 96 % of control; under setting [3], 102 % of control; under setting [5], 94 % of control.

As for `CNC(=O)Oc1ccc(C=Nc2cccc([N+](=O)[O-])c2)cc1`, the T/C under setting [1] is 101 % of control, the T/C under setting [3] was 95 % of control and the T/C under setting [5] was 100 % of control.

Turning to `O=C(/C=C(\c1ccccc1)N1CC1)c1ccccc1`, the T/C reads like this: under setting [2], 106 % of control; under setting [4], 110 % of control.

For `Cc1cc(C)c(CCc2cc(C)c(C)cc2C)cc1C`, the T/C is, setting by setting: under setting [9], 93 % of control; under setting [2], 104 % of control; under setting [10], 92 % of control; under setting [4], 93 % of control; under setting [11], 87 % of control; under setting [6], 109 % of control.

For the molecule `CCOC(=O)Cn1c(=O)n(CC(=O)OCC)c2ccccc21`, the T/C (dose: 100.0 mg/kg/injection, schedule: Q04DX002 (ip), vehicle: Klucel (hydroxypropylcellulose) (HPC)) was 104 % of control; the T/C (dose: 200.0 mg/kg/injection, schedule: Q04DX002 (ip), vehicle: Klucel (hydroxypropylcellulose) (HPC)) was 100 % of control; the T/C (dose: 400.0 mg/kg/injection, schedule: Q04DX002 (ip), vehicle: Klucel (hydroxypropylcellulose) (HPC)) was 110 % of control.

On to `O=C(O)CCCSCCSCCCC(=O)O`, for which the T/C is 97 % of control (dose: 100.0 mg/kg/injection, schedule: Q01DX009 (ip), vehicle: saline); 103 % of control (dose: 200.0 mg/kg/injection, schedule: Q01DX009 (ip), vehicle: saline); 86 % of control (dose: 400.0 mg/kg/injection, schedule: Q01DX009 (ip), vehicle: saline).

With `CCCCCC1OC1C/C=C/CCCCCCCC(=O)OCC(COC(=O)CCCCCCC/C=C/CC1OC1CCCCC)OC(=O)CCCCCCC/C=C/CC1OC1CCCCC` (stereo unspecified), the T/C is 109 % of control under setting [7], 95 % of control under setting [8] and 97 % of control under setting [12].

In the case of `CSc1ccc(NC(=O)Nc2ccc(NC(C)=O)cc2)cc1`, the T/C was 97 % of control under setting [9], 98 % of control under setting [10] and 97 % of control under setting [11].

For the molecule `Cc1ccc(S(=O)NNc2ccccc2)cc1` (stereo unspecified), the T/C under setting [7] is 93 % of control, the T/C under setting [8] was 104 % of control and the T/C under setting [12] was 93 % of control.

Regarding `O=P1(N(CCF)CCF)NCCCO1` (stereo unspecified), the T/C is 96 % of control (dose: 2.5 mg/kg/injection, schedule: Q01DX Z (ip), vehicle: saline); 91 % of control (dose: 5.0 mg/kg/injection, schedule: Q01DX Z (ip), vehicle: saline); 93 % of control (dose: 10.0 mg/kg/injection, schedule: Q01DX Z (ip), vehicle: other); 115 % of control (dose: 10.0 mg/kg/injection, schedule: Q01DX Z (ip), vehicle: saline); 106 % of control (dose: 30.0 mg/kg/injection, schedule: Q01DX Z (ip), vehicle: other).

Consider `CC(C)(C)OC(=O)N1CC=CCN1C(=O)OC(C)(C)C`, for which the T/C runs as follows: (dose: 100.0 mg/kg/injection, schedule: Q01DX001 (ip), vehicle: other) 98 % of control; (dose: 200.0 mg/kg/injection, schedule: Q01DX001 (ip), vehicle: other) 93 % of control; (dose: 400.0 mg/kg/injection, schedule: Q01DX001 (ip), vehicle: other) 102 % of control.

On to `COC(=O)C(CCC(=O)OC(C)(C)C)NC(=O)C(F)(F)F` (stereo unspecified), for which the T/C was 94 % of control (dose: 50.0 mg/kg/injection, schedule: Q01DX001 (ip), vehicle: Klucel (hydroxypropylcellulose) (HPC)); 100 % of control (dose: 100.0 mg/kg/injection, schedule: Q01DX001 (ip), vehicle: Klucel (hydroxypropylcellulose) (HPC)); 97 % of control (dose: 200.0 mg/kg/injection, schedule: Q01DX001 (ip), vehicle: Klucel (hydroxypropylcellulose) (HPC)).

As to `COc1ccc2c(c1)C13CCCC(C)(C(=O)NC1)C3CC2` (stereo unspecified), the T/C runs as follows: (dose: 100.0 mg/kg/injection, schedule: Q01DX001 (ip), vehicle: carboxymethylcellulose (CMC)) 93 % of control; (dose: 200.0 mg/kg/injection, schedule: Q01DX001 (ip), vehicle: carboxymethylcellulose (CMC)) 95 % of control; (dose: 400.0 mg/kg/injection, schedule: Q01DX001 (ip), vehicle: carboxymethylcellulose (CMC)) 101 % of control.

`CCC[CH2][Sn]1([CH2]CCC)[O]C(=O)CCC(=O)[O]1`: the T/C is 113 % of control (dose: 1.56 mg/kg/injection, schedule: Q01DX009 (ip), vehicle: Klucel (hydroxypropylcellulose) (HPC)) and 87 % of control (dose: 3.12 mg/kg/injection, schedule: Q01DX009 (ip), vehicle: Klucel (hydroxypropylcellulose) (HPC)).

With `CC(C)CN1CCC(=O)NC1=O`, the T/C reads like this: (dose: 100.0 mg/kg/injection, schedule: Q01DX Z (ip), vehicle: saline) 100 % of control; (dose: 200.0 mg/kg/injection, schedule: Q01DX Z (ip), vehicle: saline) 94 % of control.

As for `O=C1N(c2ccccc2)C(c2ccncc2)C1(c1ccccc1)c1ccccc1` (stereo unspecified), the T/C (dose: 87.5 mg/kg/injection, schedule: Q04DX003 (ip), vehicle: gum acacia) was 91 % of control; the T/C (dose: 175.0 mg/kg/injection, schedule: Q04DX003 (ip), vehicle: gum acacia) was 91 % of control; the T/C (dose: 350.0 mg/kg/injection, schedule: Q04DX003 (ip), vehicle: gum acacia) is 91 % of control.

In the case of `CCOC(=O)C(Br)(C(=O)OCC)C(c1ccccc1)c1ccccc1`, the T/C runs as follows: under setting [9], 98 % of control; under setting [10], 96 % of control; under setting [11], 93 % of control.

Turning to `CC[NH-].[Cl][Pt+2][Cl].[NH2-]`, the T/C runs as follows: (dose: 0.37 mg/kg/injection, schedule: Q01DX009 (ip), vehicle: other) 111 % of control; (dose: 0.75 mg/kg/injection, schedule: Q01DX001 (ip), vehicle: other) 107 % of control; (dose: 0.75 mg/kg/injection, schedule: Q01DX009 (ip), vehicle: other) 114 % of control; (dose: 1.5 mg/kg/injection, schedule: Q01DX001 (ip), vehicle: other) 111 % of control; (dose: 3.0 mg/kg/injection, schedule: Q01DX001 (ip), vehicle: other) 114 % of control; (dose: 3.0 mg/kg/injection, schedule: Q01DX009 (ip), vehicle: other) 157 % of control.
